From ChEMBL document CHEMBL1671722, “Comparative in vitro activity profiles of novel bis-indole antibacterials against gram-positive and gram-negative clinical isolates” (Antimicrob Agents Chemother, 2010)
In brackets after ≈: the same amount, converted by molar mass.

Columns and labels:
Clostridioides difficile = experiment: Antimicrobial activity against Clostridium difficile by broth microdilution method; type: functional
Streptococcus pneumoniae [1] = experiment: Antimicrobial activity against penicillin-intermediate Streptococcus pneumoniae by broth microdilution method; type: functional
[2] = Protein binding to serum; type: ADME, cell-free; details: read-out: PB (converted)
Pseudomonas aeruginosa = experiment: Antimicrobial activity against Pseudomonas aeruginosa by broth microdilution method; type: functional
Enterococcus faecium [3] = experiment: Antimicrobial activity against vancomycin-susceptible Enterococcus faecium by broth microdilution method; type: functional
Enterococcus faecium [4] = experiment: Antimicrobial activity against vancomycin-resistant Enterococcus faecium by broth microdilution method; type: functional
Streptococcus agalactiae = experiment: Antimicrobial activity against Streptococcus agalactiae by broth microdilution method; type: functional
Serratia marcescens = experiment: Antimicrobial activity against Serratia marcescens by broth microdilution method; type: functional
[5] = test system: Staphylococcus epidermidis; experiment: Antimicrobial activity against methicillin-resistant Staphylococcus epidermidis by broth microdilution method; type: functional
[6] = Cytotoxicity against HeLa cells after 3 days by MTS assay; type: cell-based; details: human
Klebsiella pneumoniae [7] = experiment: Antimicrobial activity against Klebsiella pneumoniae by broth microdilution method; type: functional
Acinetobacter baumannii [8] = experiment: Antimicrobial activity against multiple dug-resistant Acinetobacter baumannii by broth microdilution method; type: functional
Klebsiella pneumoniae [9] = experiment: Antimicrobial activity against ESBL-production Klebsiella pneumoniae by broth microdilution method; type: functional
Haemophilus influenzae = experiment: Antimicrobial activity against Haemophilus influenzae by broth microdilution method; type: functional
Acinetobacter baumannii [10] = experiment: Antimicrobial activity against Acinetobacter baumannii by broth microdilution method; type: functional
Burkholderia cepacia = experiment: Antimicrobial activity against Burkholderia cepacia by broth microdilution method; type: functional
Escherichia coli = experiment: Antimicrobial activity against Escherichia coli by broth microdilution method; type: functional
Staphylococcus aureus [11] = experiment: Antimicrobial activity against methicillin-resistant Staphylococcus aureus by broth microdilution method; type: functional
[12] = test system: Staphylococcus epidermidis; experiment: Antimicrobial activity against methicillin-susceptible Staphylococcus epidermidis by broth microdilution method; type: functional
Streptococcus pneumoniae [13] = experiment: Antimicrobial activity against penicillin-resistant Streptococcus pneumoniae by broth microdilution method; type: functional
Proteus mirabilis = experiment: Antimicrobial activity against Proteus mirabilis by broth microdilution method; type: functional
Staphylococcus aureus [14] = experiment: Antimicrobial activity against methicillin-susceptible Staphylococcus aureus by broth microdilution method; type: functional
Enterococcus faecalis [15] = experiment: Antimicrobial activity against vancomycin-resistant Enterococcus faecalis by broth microdilution method; type: functional
Streptococcus pneumoniae [16] = experiment: Antimicrobial activity against penicillin-susceptible Streptococcus pneumoniae by broth microdilution method; type: functional
Enterococcus faecalis [17] = experiment: Antimicrobial activity against vancomycin-susceptible Enterococcus faecalis by broth microdilution method; type: functional

## c1cc2cc(-c3ccc(-c4cc5ccc(C6=NCCN6)cc5[nH]4)cc3)[nH]c2cc1C1=NCCN1
Clostridioides difficile
  MIC50: 0.06 µg/mL (≈ 0.135 µM)
  MIC90: 0.12 µg/mL (≈ 0.27 µM)
Streptococcus pneumoniae [1]
  MIC50: 0.015 µg/mL (≈ 0.0337 µM)
  MIC90: 0.12 µg/mL (≈ 0.27 µM)
[2]
  fraction unbound: 0.75
Pseudomonas aeruginosa
  MIC50: > 16 µg/mL
  MIC90: > 16 µg/mL
Enterococcus faecium [3]
  MIC50: 4 ng/mL (≈ 0.009 µM)
  MIC90: 0.015 µg/mL (≈ 0.0337 µM)
Enterococcus faecium [4]
  MIC50: 4 ng/mL (≈ 0.009 µM)
  MIC90: 4 ng/mL (≈ 0.009 µM)
Streptococcus agalactiae
  MIC: 0.03 µg/mL (≈ 0.0675 µM)
  MIC50: 0.03 µg/mL (≈ 0.0675 µM)
  MIC90: 0.03 µg/mL (≈ 0.0675 µM)
Serratia marcescens
  MIC50: 1 µg/mL (≈ 2.25 µM)
  MIC90: 2 µg/mL (≈ 4.5 µM)
[5]
  MIC50: 0.015 µg/mL (≈ 0.0337 µM)
  MIC90: 0.03 µg/mL (≈ 0.0675 µM)
[6]
  CC50 at 72 h: 33 µg/mL (≈ 74.2 µM)
Klebsiella pneumoniae [7]
  MIC50: 2 µg/mL (≈ 4.5 µM)
  MIC90: 8 µg/mL (≈ 18 µM)
Acinetobacter baumannii [8]
  MIC50: > 16 µg/mL
Klebsiella pneumoniae [9]
  MIC50: 1 µg/mL (≈ 2.25 µM)
  MIC90: > 16 µg/mL
Haemophilus influenzae
  MIC50: 4 µg/mL (≈ 9 µM)
  MIC90: > 16 µg/mL
Acinetobacter baumannii [10]
  MIC50: 8 µg/mL (≈ 18 µM)
  MIC90: > 16 µg/mL
Burkholderia cepacia
  MIC: ≤ 0.015 µg/mL
  MIC50: ≤ 0.015 µg/mL
  MIC90: 0.06 µg/mL (≈ 0.135 µM)
Escherichia coli
  MIC50: 0.12 µg/mL (≈ 0.27 µM)
  MIC90: 0.5 µg/mL (≈ 1.12 µM)
Staphylococcus aureus [11]
  MIC: 0.06 µg/mL (≈ 0.135 µM)
  MIC50: 0.06 µg/mL (≈ 0.135 µM)
  MIC90: 0.12 µg/mL (≈ 0.27 µM)
[12]
  MIC50: 8 ng/mL (≈ 0.018 µM)
  MIC90: 0.03 µg/mL (≈ 0.0675 µM)
Streptococcus pneumoniae [13]
  MIC: 0.03 µg/mL (≈ 0.0675 µM)
  MIC50: 0.03 µg/mL (≈ 0.0675 µM)
  MIC90: 0.06 µg/mL (≈ 0.135 µM)
Proteus mirabilis
  MIC50: > 16 µg/mL
  MIC90: > 16 µg/mL
Staphylococcus aureus [14]
  MIC50: 0.12 µg/mL (≈ 0.27 µM)
  MIC90: 0.25 µg/mL (≈ 0.562 µM)
Enterococcus faecalis [15]
  MIC50: 0.03 µg/mL (≈ 0.0675 µM)
  MIC90: 0.06 µg/mL (≈ 0.135 µM)
Streptococcus pneumoniae [16]
  MIC50: 0.015 µg/mL (≈ 0.0337 µM)
  MIC90: 0.03 µg/mL (≈ 0.0675 µM)
Enterococcus faecalis [17]
  MIC50: 0.06 µg/mL (≈ 0.135 µM)
  MIC90: 0.06 µg/mL (≈ 0.135 µM)
